Tests used:
E-selectin = assay: ELISA: inhibition of E-selectin-IgG chimera binding to 2,3 sLe^x glycolipid; design: species or system human; conditions: inhibition of binding to 2,3 sLex glycolipid
Description: (§1) An ELISA assay is preferably used that employs recombinant fusion proteins composed of extracellular portions of the human selectins joined to human immunoglobulin heavy chain CH3, CH2, and hinge regions. See, for example, Walz et al., Science (1990) 250:1132; Aruffo et al., Cell (1991) 67:35; Aruffo et al., Proc. Natl. Acad. Sci. USA. (1992) 89:2292. The assay is well known in the art, and generally consists of the following three steps:
(§2) I. 2,3 sLe^x glycolipid (25 picomole/well) was transferred into microtiter wells as solutions and then evaporated off. Excess, which remained unattached, was washed off with water. The wells were then blocked with 5% BSA at room temperature for an hour and then washed with PBS containing 1 mM calcium.
(§3) II. Preparation of "multivalent" receptor of the Selectin-lgG chimera was carried out by combining the respective chimera (1 μg/mL) with biotin labelled goat F(ab')2 anti-human IgG (Fc specific) and streptavidin-alkaline phosphatase diluted 1:1000 in 1% BSA-PBS (1 mM calcium) and incubating at 37° C. for 15 min. This allowed the soluble multivalent receptor complex to form. III. Potential inhibitors such as the compounds of formula I or II were allowed to react with the soluble receptor at 37° C. for 45 min. This test assumes that optimal binding, between the soluble phase receptor complex and the inhibitor (non natural ligand), would have occurred within this time frame. This solution was then placed in the microtiter wells that were prepared in step I. The plate was incubated at 37° C. for 45 minutes to allow the soluble receptor to bind to its natural ligand. In the presence of a strong inhibitor only a few receptors should be free to bind to the microtiter plate coated with the natural ligand.
(§4) The positive control is the signal produced by the soluble receptor when it is allowed to react with 2,3 sLe^x glycolipid in the microtiter wells in the absence of any inhibitor. This positive control was considered 100% binding. The signal produced by the receptor that had been previously treated with an inhibitor (recorded as O.D.), was divided by the signal produced by the positive control and multiplied by 100 to calculate the % receptor bound to the well in the presence of the inhibitor. The reciprocal of this number is the % inhibition.
as §1, with “was employed” for “is preferably used”, “uses” for “employs”, “USA” for “USA.”
(§5) II. Preparation of "multivalent" receptor of the Selectin-IgG chimera was carried out by combining the respective chimera 1 μg/ml) with biotin labelled goat F(ab')2 anti-human IgG (Fc specific) and streptavidin-alkaline phosphatase diluted 1:1000 in 1% BSA-PBS (1 mM calcium) and incubating at 37° C. for 15 min. This allowed the soluble multivalent receptor complex to form.
(§6) III. Potential inhibitors such as compounds of formula I or II were allowed to react with the soluble receptor at 37° C. for 45 min. This test assumes that optimal binding, between the soluble phase receptor complex and the inhibitor (non natural ligand), would have occurred within this time frame. This solution was then placed in the microtiter wells that were prepared in step I. The plate was incubated at 37° C. for 45 minutes to allow the soluble receptor to bind to its natural ligand. In the presence of a strong inhibitor only a few receptors should be free to bind to the microtiter plate coated with the natural ligand.
(§7) The positive control is the signal produced by the soluble receptor when it is allowed to react with 2,3 sLe^x glycolipid in the microtiter wells in the absence of any inhibitor. This was considered 100% binding. […]

L-selectin = assay: ELISA: inhibition of L-selectin-IgG chimera binding to 2,3 sLe^x glycolipid; design: species or system human
Description: as §1, §2, §3, §4
as §1, with “was employed” for “is preferably used”, “uses” for “employs”, “USA” for “USA.”
as §5, §6, §7

P-selectin = assay: ELISA: inhibition of P-selectin-IgG chimera binding to 2,3 sLe^x glycolipid; design: species or system human; conditions: inhibition of binding to 2,3 sLex glycolipid
Description: as §1, §2, §3, §4
as §1, with “was employed” for “is preferably used”, “uses” for “employs”, “USA” for “USA.”
as §5, §6, §7

[1] = test system: neutrophil migration into the peritoneum; assay: Murine thioglycollate induced peritonitis: neutrophil migration to the peritoneal cavity; format: in vivo, mouse (Swiss Webster); conditions: mice, tail vein injection, 3 h after thioglycollate, FIG. 7(a) and (b)
Description: The efficaciousness of 7 and 10 was shown using a murine thioglycollate induced peritonitis model. The assay materials and methods are known in the art, or are generally described by Lewinsohn, D. et al., J. Immun., 138:4313-4321 (1987), or Watson, S. et al., Nature 349:164-166 (1991). This assay measures the ability of the compounds to inhibit neutrophil migration to the peritoneal cavity, the migration being initiated by the presence of thioglycollate in the peritoneal cavity. Thioglycollate is a known and effective inflammatory agent that causes neutrophil migration into the mouse peritoneum when it is administered intraperitoneally. Lewinsohn, D. et al., J. Immun. (1987) 138:4313-4321. Briefly, female Swiss Webster mice weighing about 25 grams were injected in the tail vein with 200 μl of phosphate buffered saline (PBS) with or without the appropriate compound. The pH of the solutions was adjusted to neutrality by the addition of either NaOH or HCL and sterilized by filtration through a 0.2 μ filter. Immediately following injection with the appropriate compound or PBS, the mice were injected intraperitoneally with 1 ml of thioglycollate medium prepared as described by the manufacturer, BBL. Three hours following injection of the thioglycollate solution the mice were sacrificed by CO2 asphyxiation, and the number of cells in the peritoneum removed by lavage with 5 ml of heparinized (5 U/ml) 0.9% sodium chloride solution containing 0.1% bovine serum albumin. Cell number was determined using a Coulter Counter. The cells were prepared for counting by diluting the lavage fluid with 1:50 of a commercial physiological isotonic solution, Isoton II, and the cells lysed by adding S/P Lysing and Hemoglobin Reagent (1:100 final dilution). Cell nuclei were counted in a sized window with lower and upper limits set at 3.9 and 5.7 μm, respectively.

- IC50 (E-selectin): 2 to 3 mM
- IC50 (L-selectin; inhibition of binding to 2,3 sLex glycolipid): 2 to 3 mM
- IC50 (P-selectin): ~0.5 mM
SMILES: CC(OCCCCCCOC1O[C@@H](C)[C@@H](O)[C@@H](O)[C@@H]1O)C(=O)O (stereo partly drawn) [Compound 10, 1-O-(α-β-L-Fucopyranosyl)-6-O-[(R,S)-1-Carboxyethyl]-Hexane]
- inhibition of L-selectin binding to 2,3 sLe^x glycolipid (L-selectin; FIG. 5 and FIG. 6, result in words): at all four concentrations of the compound tested there is significant inhibitory activity
- inhibit neutrophil migration into the peritoneum [1]: inhibit neutrophil migration into the peritoneum

From patent US5658880A, “Sialic acid/fucose based medicaments” (Glycomed Incorporated, priority 1994, dated 1997)
